Series [1] concerns CaSki cells. Put plainly: MTS cell proliferation assay, GCV/ACV on transfected CaSki cells. The settings on record: for effect on cell viability: CaSki cells mock-transfected or transfected with control plasmid pNSGL0; for growth inhibition: CaSki cells transfected with HPV 16 LCR-driven HSV 1-TK plasmid, 20-30 μg/ml for 6-8 days. As for the experimental part:
All transfections were performed by calcium phosphate mediated transfection using the Profection Mammalian Transfection Systems (Promega, Wis.) according to the manufacturer's instructions. Cells were seeded at a density of 2×10^5 cells in each well in two mls of DMEM and grown to 50-60% confluence. One μg of plasmid DNA was used for transfecting each cell line. The calcium phosphate-DNA mix was overlaid on the cells for four to six hours and then replaced by two mls of complete medium. For mock-transfections, no DNA was added to the calcium phosphate transfection reagent. To measure promoter activity with a standard luciferase assay (Promega, Wis.) the transfected cells were harvested after 24-48 hours. To analyze HSV 1-TK gene expression by RT-PCR, the transfected cells were harvested 48-60 hours after transfection.
The CaSki, SiHa, HSC3 and HeLa cell lines were transfected with the pNSGLTK-8 or pNSGL0 plasmids or mock transfected with no plasmid. […] The absorbance at 490 nm is a measure of the number of living cells in the culture. Percent survival was calculated as follows: [formula]
A general note: Tetrazolium dyes change colour on reduction, which living cells bring about.

For a further series, the system named is untransfected cell lines. Description: TUNEL staining of untransfected cell lines. Type of series: cell-based. The settings on record: 20.0 μg/ml, six to eight days (data not shown). From the text: (§1) The DeadEnd Colorimetric Apoptosis Detection System (Promega, Wis.) is a modified TUNEL (TdT-mediated dUTP Nick-End Labeling) assay in which the enzyme Terminal deoxynucleotidyl Transferase (TdT) incorporates biotinylated nucleotides at the 3′-OH DNA ends (1, 20). Streptavidin horseradish-peroxidase is then bound to the biotinylated nucleotides, which are detected by hydrogen peroxide and diaminobenzidine (DAB), a stable chromogen. Using this procedure, apoptotic nuclei stained dark brown when visualized under a light microscope.

In series [2] the test system is CaSki cells. Description: TUNEL apoptosis detection in transfected CaSki cells. It counts as cell-based, human.
Source text: as §1

In another series the test system is HSC3 cells. Description: GCV cytotoxicity on transfected HSC3 cells. The settings on record: HSC3 cells transfected with pNSGLTK-8; different concentrations, 6 days. It counts as cell-based, human. The protocol:
(§2) Percent survival was calculated as follows: [formula]

Series [3] relates to SiHa cells. Description: TUNEL apoptosis detection in transfected SiHa cells. Type of series: cell-based, human. The settings on record: SiHa cells transfected with pNSGLTK-8; 20.0 μg/ml GCV, eight to ten days.
Source text: as §1

Series [4] concerns SiHa cells. Put plainly: MTS cell proliferation assay, GCV on transfected SiHa cells. Type of series: cell-based, human. To be noted: SiHa cells transfected with pNSGLTK-8, 20.0 μg/ml. The protocol: as §2
In series [5] the test system is VERO—African Green Monkey kidney cell line. Put plainly: GCV cytotoxicity on transfected VERO cells. Type of series: cell-based. To be noted: VERO cells transfected with pNSGLTK-8; different concentrations, 6 days. From the text: (§3) To test the specificity of the methods described herein, an HPV positive cell line (CaSKi) and four HPV-negative cell lines were transfected with the plasmid plasmid pNSGLTK-8 described herein.

For series [6], the system named is CaSki cells. Description: Confocal microscopy of HSV1-TK protein and PI nuclear staining in transfected CaSki cells. It counts as cell-based, human. The settings on record: CaSki cells transfected with pNSGLTK-8; 20 ug/ml GCV for 2 days. As for the experimental part: CaSki cells were transfected with HPV16 LCR driven HSV1-TK construct (pNSGLTK-8). After 48 hours, cell were fixed and HSV-TK protein was detected using polyclonal rabbit anti-HSV1-TK antibody and FITC-conjugated goat anti-rabbit secondary antibody. The nuclear staining was done with propidium iodide. The cells were examined by confocal microscopy.
Cell were fixed and HSV1-TK protein was detected using polyclonal rabbit anti-HSV1-TK antibody and FITC-conjugated goat anti-rabbit secondary antibody. The nuclear staining was done with propidium iodide. The cells were examined by confocal microscopy.

Series [7] has as its system Human oral squamous cell carcinoma cell, SSC9. Description: GCV cytotoxicity on transfected SSC9 cells. To be noted: SSC9 cells transfected with pNSGLTK-8; different concentrations, 6 days. Type of series: cell-based.
Source text: as §3

The subject of another series is HeLa cells. Put plainly: GCV killing of transfected HeLa cells. Type of series: cell-based, human. To be noted: HeLa cells transfected with pNSGLTK-8; 20.0 μg/ml, two weeks (data not shown). As for the experimental part:
as §2

For series [8] the following is noted: taken orally by patients, clinical trials (Sugawara et al. 2000); cited from earlier work.

SMILES strings stand for the structures.

In the case of `Nc1nc2c(ncn2COCCO)c(=O)[nH]1` [ACV, acyclovir], in the series with CaSki cells [1], the “effect on cell viability” value is listed as “refractory” and the growth inhibition result is on record as “approximately 80%”. For the same compound, the “concentration showing cytotoxic effects” value with CaSki cells [1] (CaSki cells transfected with pNSGLTK-8, ten days exposure) came to 30000 ng/mL. Besides, the “apoptotic cells (TUNEL staining)” value in the series with untransfected cell lines is on record as “did not show an increase in apoptotic cells”. The “apoptosis (TUNEL staining, morphology)” value in the series with CaSki cells [2] (cells transfected with pNSGLTK-8, 20.0 μg/ml ACV, six days (FIG. 12: CaSki)) is on record as “Typical apoptotic morphology of TUNEL-stained nuclei”.
Consider `Nc1nc(O)c2ncn(COC(CO)CO)c2n1` [GCV, ganciclovir], for which, in the series with CaSki cells [1] (CaSKi cells transfected with pNSGLTK-8, 6 days exposure), the cytotoxicity entry was “cytotoxicity is restricted to HPV positive cell line CaSKi only”. Further, the “effect on cell viability” value in the series with CaSki cells [1] is on record as “No significant effect on cell viability”. Also, the growth inhibition entry with CaSki cells [1] was “approximately 80%”. Besides, in the series with CaSki cells [1] (CaSki cells transfected with pNSGLTK-8, 0, 5, 10, 20 μg/ml GCV, six days), the “effect on cell viability, dose dependence” value is “dose-dependent effect”. In addition, the cells killed entry in the series on CaSki cells [1] (CaSki cells transfected with pNSGLTK-8, 20.0 μg/ml, 10 days) was “more than 95%”; with SiHa cells [4] (six days), “approximately 42%”; with SiHa cells [4] (two weeks (data not shown)) it was “more than 90%”; in the series on HeLa cells, “more than 90%”. Moreover, in the series with CaSki cells [1] (CaSki cells transfected with pNSGLTK-8, 20.0 μg/ml, six days), the maximal cell death result is “approximately 80%”. Further, the cytotoxic effect result (with HSC3 cells; in series [5]; in [7]) was “did not show any significant cytotoxic effect” in each case. The “apoptosis (TUNEL staining, morphology)” value is “significant cell death associated with typical apoptotic morphology” with SiHa cells [3] and “characteristic apoptotic morphology” with CaSki cells [2] (CaSki cells transfected with pNSGLTK-8, 20.0 μg/ml GCV, four days). Also, the “apoptotic cells (TUNEL staining)” value with untransfected cell lines was “did not show an increase in apoptotic cells”. Further, in the series on CaSki cells [6], the “nuclear staining by PI” value is “majority of nuclei look disrupted due to early apoptosis”.
Consider `CC(C)[C@H](N)C(=O)OCC(CO)OCn1cnc2c(=O)nc(N)[nH]c21` (stereo partly shown) [valganciclovir], for which the bioavailability entry in series [8] is “enhance the bioavailability of ganciclovir”.

Values taken from US20040214158A1, “Treatment of human papillomavirus (hpv)-infected cells” (priority 2000, published 2004).
